The results in this text go back to patent US20060148758A1, “Method for blood glucose control in a mammal by N-acylated glucosamines” (priority 2005, published 2006).

Format in all cases: in vivo, rat
Data set [1] has as its system blood glucose. The experiment in a line: Blood glucose after oral gavage in 24 h fasted rats (glucose oxidase kit). The following applies: fasted 24 h, gavage of 0.736 M in 3 ml saline; for increase in blood glucose compared with saline and glucose groups: male rats, 0-150 min. As for the experimental part:
In the experiments performed and described herein, there were four groups of Spague Dawley type male rats, weighting approximately 300 g each, consisting of four (4) animals in each group. The animals were fed freely on standard rat chow and were then fasted for 24 hours. At the end of this period, said animals were lightly anaesthetized with nitrogen oxide and halothane, the body temperature being maintained with a heat lamp, and the femoral artery was cannulated, with a heparinized catheter and syringe, so that multiple blood samples could be obtained at serial time points. The test compounds were administered by gavaging the animals, said compounds having being dissolved in 3 ml of normal saline. The concentrations of the compounds administered to three groups of animals were: 0.736 M (550 mg in 3 ml of saline) of N-butyryl-D-glucosamine (designated as GlcNBu), or 0.736 M (398 mg in 3 ml of saline) of D-glucose (designated as Glc), or a combination of 0.736 M of GlcNBu and 0.736 M Glc dissolved together in 3 ml of saline. No compound was administered to the fourth group of animals (which consisted of a control group) and animals in this group were gavaged instead with 3 ml of normal saline.
Blood (0.4 ml) was collected at 10 min before the gavage (designated as −10 min in the accompanying FIG. 1), immedietly before the gavage (designated as 0 min) and at the following time points (timed in minutes after time 0) 5, 15, 30, 60, 90, 120 and 150, as shown in the accompanying figure. The glucose concentration in the blood was determined by a commercial glucose oxidase kit, designed for the determination of blood glucose in the blood of patients with diabetes. The determinations were done in triplicate for each time point and for each of the four animals in each of the four groups.
With reference to FIG. 1, each point of the graph represents the mean of the blood glucose concentrations obtained from the four rats in each group of animals. […]

Data set [2] can be described thus: Lean body mass and fat content by Dual Energy X-ray Absortiometry after 6 months daily oral feeding of control and ovariectomised rats. The following applies: daily oral feeding 6 months (GlcNBu 200 mg/kg/day or equimolar Glc). The protocol:
In another experiment, there were four Groups of Sprague Dawley type female rats, with eight animals in each group, of approximately 250 g in weight. Two of the said groups underwent surgical ovariectomy and will be referred as the ovariectomised Groups (OVX). […] One C group and one OVX Group were fed GlcNBu, 200 mg/kg/day orally and one C group and one OVX Group were fed an equimolar amount of Glc daily. The daily feedings continued for all of the animals for a period of 6 months. At the end of the 6 month period the animals were euthanized, blood was obtained by cardiac puncture for glucose measurements, 24 hours after the administration of the Glc or GlcNBu, and their body fat and lean body mass was estimated, using a Hologic 4500 Dual Energy X-ray Absortiometry instrument, with small animal software.
It was previously known that ovariectomy increases the body weight and the fat content of animals undergoing this procedure. The results for the lean body mass and the fat content are shown in Table 1 and presented as the mean values±the standard deviations (SD) for each group of Animals.

Data set [3] in a line: Incorporation of radioactivity from radiolabelled GlcNBu into plasma glucose, glucosamine or N-acetylglucosamine (HPLC of acetonitrile-soluble plasma fraction). The conditions noted are these: rats, oral or IP, plasma acetonitrile-soluble fractions up to 4 hour, amine column HPLC. As for the experimental part:
In order to test whether GlcNBu, in fact, was incorporated into serum glucose, or glucosamine, radiolabelled GlcNBu was prepared from [^3H] glucosamine and administered either orally or intra-peritoneally (IP) to rats, under identical conditions shown in FIG. 1. Plasma was sampled serially and plasma proteins were precipitated with acetonitrile and the radioactivity into the acetonitrile-soluble fraction containing GlcNBu metabolites was quantified. It can be seen that the radioactive profile from the oral administration of [^3H] GlcNBu is different than the glucose concentration profiles (FIG. 1). Acetonitrile-soluble fractions illustrated in FIG. 2, including the 4 hour time point were analyzed by HPLC, using an amine column and acetonitrile/water mixtures as the mobile phase (1 mL/min flow rate), Absorbance at 195 nm and radioactivity of 2 mL fractions were monitored. Radiolabelled and non-radiolabelled standards of GlcNBu, glucose, glucosamine, N-acetylglucosamine and various disaccharides were used as standards for the column. […] It is, therefore, unlikely that a significant proportion of orally fed GlcNBu is converted to glucose, glucosamine or N-acetylglucosamine, over the time course of the study. Also, glucose or glucosamine are not known to be converted into GlcNBu by animal tissues.

[4] abbreviates: control (C, non-ovariectomised) female rats.
[5] abbreviates: ovariectomised (OVX) female rats.

On to `O=C[C@H](O)[C@@H](O)[C@H](O)[C@H](O)CO` [Glc, D-glucose, reference compound], for which, in data set [1] (male Sprague Dawley rats, followed to 150 min, mean of 4 rats), the “blood glucose concentration rose from time 0 to” value is roughly 7 mmol/L. Besides, in data set [2] (setting [4]), the “Fat content (g, mean ± SD)” value stood at 77.45 ± 21.0 g and the “Lean body mass (g, mean ± SD)” value is reported as 283.93 ± 21.5 g. Further, in data set [2] (setting [5]), the “Fat content (g, mean ± SD)” value amounted to 112.94 ± 30.9 g and the “Lean body mass (g, mean ± SD)” value was found to be 296.87 ± 6.2 g.
Take `CCCC(=O)N[C@H]1C(O)O[C@H](CO)[C@@H](O)[C@@H]1O` (stereo partly drawn) [GlcNBu, N-butyryl-D-glucosamine]: the “increase in blood glucose compared with saline and glucose groups” value in data set [1] is “higher than those gavaged with saline but lower than those rats gavaged with glucose”; in data set [1] (listed as N-butyryl-D-glucosamine), “lower blood glucose”. The “Fat content (g, mean ± SD)” value in data set [2] (setting [4]) was 74.57 ± 23.2 g; in data set [2] (setting [5]), 126.08 ± 38.4 g. The “Lean body mass (g, mean ± SD)” value in data set [2] (setting [4]) is reported as 264.02 ± 12.1 g; in data set [2] (setting [5]), 307.52 ± 34.0 g.
For `CCCC(=O)N[C@H]1C(O)O[C@H](CO)[C@@H](O)[C@@H]1O` (stereo partly drawn) [[^3H] GlcNBu], in data set [3], the “incorporation of radioactivity into glucose, glucosamine or N-acetylglucosamine” value is “no significant incorporation of radioactivity”.
